Test results reported in patent US20120258940A1, “METHOD FOR TREATING HAEMATOLOGICAL CANCERS” (priority 2009, published 2012).

Assays:
Format in all cases: cell-based
[1] = system: multiple myeloma cell line KMS-11; assay: Cell viability (CellTiter GLO), FGFR inhibitor + glucocorticoid combination, KMS-11; conditions: for CI of Cpd. + 100 nM Dex: 72 hours; for Synergy Score: Loewe Additivity model
Experimental: (§1) Cell viability was measured by CellTiter GLO. For the combination treatments in FIGS. 1 and 2, the Y axes were cell viability was normalized to the wells treated with dexamethasone alone.
(§2) All FGFR inhibitors were desolved in DMSO as a 10 mM stock. Serial dilutions, as indicated in each figure, were made as 3× solutions in culture medium before adding to the cell cultures. Dexamethasone and halometasone were dissolved in 100% ethanol as a 10 millimol master stock. Serial dilutions, as indicated in each figure, were made as 3× solutions in culture medium. Cell lines, cell culture and treatment:
(§3) KMS-11 and OPM-2 cell lines can be purchased from HSRRB (Japan) and DSMZ (Germany), respectively. Early passage KMS-11 and OPM-2 cell lines were cultured in RPMI-1640 (ATCC Catalog#30-2001) supplemented with 10% FBS for 1 or 2 passages before treatment. Twenty thousand cells were seeded in each well of a 96-well plate and grew for 24 hours. Cells were then treated in triplicate with vehicle, an FGFR inhibitor (Compound A, B), a glucocorticoid (Dexamethasone or halometasone) alone or a combination at indicated concentrations in 5% CO2 at 37 C for 72 hours. Viability was determined by CellTiter GLO (Promega, Cat#G755B) using identical method as described by the manufacturer. Data analysis:
(§4) Raw CellTiter GLO relative […] unit (RFU) values were acquired using a microplate reader (PerkinElmer Precisely, Perkin Elmer Life and Analytical Sciences). Data analysis was performed using the Chalice software developed by CombinatoRx (Zalicus Inc., Cambridge, Mass., USA). Specifically, the Loewe Additivity (ADD) model was used as the combination reference in the EXAMPLES.

[2] = system: multiple myeloma cell line OPM-2; assay: Cell viability (CellTiter GLO), FGFR inhibitor + glucocorticoid combination, OPM-2; conditions: for CI of Cpd. + 100 nM Dex: 72 hours; for Synergy Score: Loewe Additivity model
Experimental: as §1, §2, §3, §4

[3] = system: multiple myeloma cell lines; assay: Inhibition of proliferation of multiple myeloma cell lines by combinations (cell line not specified); conditions: with Dexamethasone
Experimental: as §2, §3
Raw CellTiter GLO relative […] unit (RFU) values were acquired using a microplate reader (PerkinElmer Precisely, Perkin Elmer Life and Analytical Sciences). Data analysis was performed using the Chalice software developed by CombinatoRx (Zalicus Inc., Cambridge, Mass., USA). […]

[4] = Cpd. 0.0001 nM + 100 nM dexamethasone
[5] = Cpd. 0.001 nM + 100 nM dexamethasone
[6] = Cpd. 0.01 nM + 100 nM dexamethasone
[7] = Cpd. 0.1 nM + 100 nM dexamethasone
[8] = Cpd. 1 nM + 100 nM dexamethasone
[9] = Cpd. 10 nM + 100 nM dexamethasone
[10] = Cpd. 100 nM + 100 nM dexamethasone
[11] = Cpd. 1000 nM + 100 nM dexamethasone
[12] = Cpd. 10000 nM + 100 nM dexamethasone
[13] = in combination with Dexamethasone

CCN(CC)CCCCNc1ncc2cc(-c3cc(OC)cc(OC)c3)c(NC(=O)NC(C)(C)C)nc2n1 [Compound E, 1-tert-Butyl-3-[6-(3,5-dimethoxy-phenyl)-2-(4-diethylamino-butylamino)-pyrido[2,3-d]pyrimidin-7-yl]-urea, reference compound]
Combination effect on cell viability (figure legend) ([1]; with dexamethasone): synergistic effect
Combination effect on cell viability (figure legend) ([2]; with dexamethasone): synergistic effect

C[C@@H]1C[C@H]2[C@@H]3CCC4=CC(=O)C=C[C@]4(C)[C@@]3(F)[C@@H](O)C[C@]2(C)[C@@]1(O)C(=O)CO [Dexamethasone, reference compound]
Chemical 2 concentration in the combination at 50% growth inhibition ([1]; in combination with Compound A): (0.14) mM
Chemical 2 concentration in the combination at 50% growth inhibition ([1]; in combination with Compound B): (0.32) mM
Chemical 2 concentration in the combination at 50% growth inhibition ([2]; in combination with Compound A): (0.30) mM
Chemical 2 concentration in the combination at 50% growth inhibition ([2]; in combination with Compound B): (0.30) mM

CCN1CCN(c2ccc(Nc3cc(N(C)C(=O)Nc4c(Cl)c(OC)cc(OC)c4Cl)ncn3)cc2)CC1 [Compound A, 3-(2,6-dichloro-3,5-dimethoxy-phenyl)-1-{6-[4-(4-ethyl-perpazin-1-yl)-phenylamino]-pyrimidin-4-yl}-1-methyl urea]
CI of Cpd. + 100 nM Dex [1, 4]: 6.10E−02
CI of Cpd. + 100 nM Dex [1, 5]: 2.20E−02
CI of Cpd. + 100 nM Dex [1, 6]: 9.00E−03
CI of Cpd. + 100 nM Dex [1, 7]: 5.00E−03
CI of Cpd. + 100 nM Dex [1, 8]: 1.00E−03
CI of Cpd. + 100 nM Dex [1, 9]: 4.17E−05
CI of Cpd. + 100 nM Dex [1, 10]: 1.25E−06
CI of Cpd. + 100 nM Dex [1, 11]: 1.21E−06
CI of Cpd. + 100 nM Dex [1, 12]: 1.43E−12
Chemical 1 concentration in the combination at 50% growth inhibition [1, 13]: A (1.5) mM
Combination Index (CI) at 50% inhibition [1, 13]: 0.077 ± 0.001
Synergy call [1, 13]: Very strong
Synergy Score [1, 13]: 35
Chemical 1 concentration in the combination at 50% growth inhibition ([1]; in combination with Sicorten): A (4.2) mM
Combination Index (CI) at 50% inhibition ([1]; in combination with Sicorten): 0.220 ± 0.006
Synergy call ([1]; in combination with Sicorten): Strong
Synergy Score ([1]; in combination with Sicorten): 10
Combination effect on cell viability (figure legend) ([1]; with Sicorten): synergistic effect
Combination effect on cell viability (figure legend) ([1]; with dexamethasone): synergistic effect
CI of Cpd. + 100 nM Dex [2, 4]: 1.39E−01
CI of Cpd. + 100 nM Dex [2, 5]: 5.00E−02
CI of Cpd. + 100 nM Dex [2, 6]: 4.90E−02
CI of Cpd. + 100 nM Dex [2, 7]: 1.50E−02
CI of Cpd. + 100 nM Dex [2, 8]: 1.10E−02
CI of Cpd. + 100 nM Dex [2, 9]: 3.00E−03
CI of Cpd. + 100 nM Dex [2, 10]: 7.00E−03
CI of Cpd. + 100 nM Dex [2, 11]: 5.90E−02
CI of Cpd. + 100 nM Dex [2, 12]: 4.40E−02
Chemical 1 concentration in the combination at 50% growth inhibition [2, 13]: A (0.03) mM
Combination Index (CI) at 50% inhibition [2, 13]: 0.034 ± 0.003
Synergy call [2, 13]: Very strong
Synergy Score [2, 13]: 29
Chemical 1 concentration in the combination at 50% growth inhibition ([2]; in combination with Sicorten): A (1.6) mM
Combination Index (CI) at 50% inhibition ([2]; in combination with Sicorten): 0.282 ± 0.007
Synergy call ([2]; in combination with Sicorten): Strong
Synergy Score ([2]; in combination with Sicorten): 17
Combination effect on cell viability (figure legend) ([2]; with Sicorten): synergistic effect
Combination effect on cell viability (figure legend) ([2]; with dexamethasone): synergistic effect
Reduction by Dexamethasone of the concentration required to achieve 50% of inhibition of proliferation [3]: at least a million fold

CN1CCN(c2ccc3nc(-c4c(N)c5c(F)cccc5[nH]c4=O)[nH]c3c2)CC1 [Compound B, 4-amino-5-fluoro-3-[6-(4-methylpiperazin-yl)-1H-benzimidazol-2-yl]quinolin-2(1H)-one]
CI of Cpd. + 100 nM Dex [1, 4]: 2.71E−01
CI of Cpd. + 100 nM Dex [1, 5]: 1.72E−01
CI of Cpd. + 100 nM Dex [1, 6]: 1.73E−01
CI of Cpd. + 100 nM Dex [1, 7]: 1.32E−01
CI of Cpd. + 100 nM Dex [1, 8]: 1.23E−01
CI of Cpd. + 100 nM Dex [1, 9]: 9.00E−03
CI of Cpd. + 100 nM Dex [1, 10]: 1.00E−03
CI of Cpd. + 100 nM Dex [1, 11]: 4.00E−03
CI of Cpd. + 100 nM Dex [1, 12]: 3.00E−03
Chemical 1 concentration in the combination at 50% growth inhibition [1, 13]: B (0.74) mM
Combination Index (CI) at 50% inhibition [1, 13]: 0.050 ± 0.004
Synergy call [1, 13]: Very strong
Synergy Score [1, 13]: 18
Chemical 1 concentration in the combination at 50% growth inhibition ([1]; in combination with Sicorten): B (0.45) mM
Combination Index (CI) at 50% inhibition ([1]; in combination with Sicorten): 0.371 ± 0.003
Synergy Score ([1]; in combination with Sicorten): 4
Combination effect on cell viability (figure legend) ([1]; with Sicorten): synergistic effect
Combination effect on cell viability (figure legend) ([1]; with dexamethasone): synergistic effect
CI of Cpd. + 100 nM Dex [2, 4]: 1.64E+00
CI of Cpd. + 100 nM Dex [2, 5]: 1.38E+00
CI of Cpd. + 100 nM Dex [2, 6]: 1.17E+00
CI of Cpd. + 100 nM Dex [2, 7]: 1.10E+00
CI of Cpd. + 100 nM Dex [2, 8]: 1.00E+00
CI of Cpd. + 100 nM Dex [2, 9]: 7.94E−01
CI of Cpd. + 100 nM Dex [2, 10]: 1.86E−01
CI of Cpd. + 100 nM Dex [2, 11]: 5.80E−02
CI of Cpd. + 100 nM Dex [2, 12]: 1.00E−03
Chemical 1 concentration in the combination at 50% growth inhibition [2, 13]: B (1.8) mM
Combination Index (CI) at 50% inhibition [2, 13]: 0.350 ± 0.010
Synergy Score [2, 13]: 10
Chemical 1 concentration in the combination at 50% growth inhibition ([2]; in combination with Sicorten): B (10) mM
Combination Index (CI) at 50% inhibition ([2]; in combination with Sicorten): 0.281 ± 0.005
Synergy call ([2]; in combination with Sicorten): Strong
Synergy Score ([2]; in combination with Sicorten): 14
Combination effect on cell viability (figure legend) ([2]; with Sicorten): synergistic effect
Combination effect on cell viability (figure legend) ([2]; with dexamethasone): synergistic effect

C[C@@H]1C[C@H]2[C@@H]3C[C@H](F)C4=CC(=O)C(Cl)=C[C@]4(C)[C@@]3(F)[C@@H](O)C[C@]2(C)[C@@]1(O)C(=O)CO [Sicorten, halometasone, reference compound]
Chemical 2 concentration in the combination at 50% growth inhibition ([1]; in combination with Compound A): Sicorten (0.01) mM
Chemical 2 concentration in the combination at 50% growth inhibition ([1]; in combination with Compound B): Sicorten (0.02) mM
Chemical 2 concentration in the combination at 50% growth inhibition ([2]; in combination with Compound A): Sicorten (0.03) mM
Chemical 2 concentration in the combination at 50% growth inhibition ([2]; in combination with Compound B): Sicorten (0.02) mM
